Active and inactive are the calls of the source.
Tests used:
Bcl-2-related protein A1 [1] = molecular target: T1, Bcl-2-related protein A1 (Mus musculus, UniProt Q07440); assay: small-molecule antagonists of Bfl-1/BH3 interaction – biochemical, TR-FRET, mouse Bfl-1, confirmation (AID 621);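 further: TR-FRET binding of GST-Bfl-1 to FITC-labelled Bid peptide via terbium antibody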
T1 sequence (Q07440 whole entry): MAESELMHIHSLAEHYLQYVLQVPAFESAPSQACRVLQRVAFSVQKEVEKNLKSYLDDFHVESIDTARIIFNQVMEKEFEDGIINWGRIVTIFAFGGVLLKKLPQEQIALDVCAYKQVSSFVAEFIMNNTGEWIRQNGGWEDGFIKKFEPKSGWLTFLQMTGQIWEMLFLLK

Bcl-2-related protein A1 [2] = molecular target: T1, Bcl-2-related protein A1; assay: Bfl-1 binding inhibitors, SAR follow-up, biochemical, fluorescence polarization (AID 1070)
[3] = Trypanosoma cruzi growth suppression in host cells – NIH3T3 host cells, beta-gal luminescence, confirmation (AID 2044); type: functional, cell-based;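 further: intracellular parasites grown in NIH/3T3 mouse fibroblasts as host cells; luminescent beta-galactosidase reporter signal from transgenic T. cruzi replicating inside host cells; inhibitors lower the luminescence signal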
[4] = NIH3T3 cell viability loss – ATP luminescence, mouse fibroblasts, counter-screen, dose response (AID 2010); type: functional, cell-based;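 further: cells exposed to compound for about 90 hours before reading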
[5] = viability of uninfected HEp-2 cells – cell-based, HTS, cytotoxicity control for RSV inhibitor project, dose response (AID 2410); type: functional; conditions: human respiratory syncytial virus
[6] = molecular target: Bifunctional protein GlmU (Mycobacterium tuberculosis, UniProt P9WMN3); assay: Inhibitors of Mycobacterial Glucosamine-1-phosphate acetyl transferase (GlmU). Secondary screen.; design: species or system Mycobacterium tuberculosis H37Rv
Estrogen receptor = molecular target: T2, Estrogen receptor (Homo sapiens, UniProt P03372);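 further: potency for inhibiting coactivator peptide recruitment to the receptor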
T2 sequence (P03372 whole entry): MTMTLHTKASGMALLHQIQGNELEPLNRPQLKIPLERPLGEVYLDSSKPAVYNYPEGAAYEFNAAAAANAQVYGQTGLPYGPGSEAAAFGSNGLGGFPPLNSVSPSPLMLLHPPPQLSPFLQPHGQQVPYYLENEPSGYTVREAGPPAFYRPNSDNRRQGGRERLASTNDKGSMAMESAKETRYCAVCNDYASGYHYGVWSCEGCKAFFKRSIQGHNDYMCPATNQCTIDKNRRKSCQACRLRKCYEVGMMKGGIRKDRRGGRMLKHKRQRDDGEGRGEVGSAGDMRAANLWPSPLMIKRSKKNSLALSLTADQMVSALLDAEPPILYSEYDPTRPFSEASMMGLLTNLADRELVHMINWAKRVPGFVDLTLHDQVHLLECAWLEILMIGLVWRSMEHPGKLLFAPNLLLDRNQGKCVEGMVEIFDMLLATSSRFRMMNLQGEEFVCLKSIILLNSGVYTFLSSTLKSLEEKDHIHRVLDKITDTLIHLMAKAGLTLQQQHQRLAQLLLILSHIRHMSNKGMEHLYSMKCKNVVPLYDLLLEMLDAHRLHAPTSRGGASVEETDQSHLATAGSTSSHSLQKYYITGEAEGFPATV

Protein Tat = Protein Tat (Human immunodeficiency virus type 1 group M subtype B (isolate HXB2)(HIV-1), UniProt P04608); type: functional;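 further: tat binding to TAR RNA read out by fluorescence polarization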
[7] = HPDE-C7 pancreatic duct cell viability loss – fluorescence, HTS (AID 430); type: functional, cell-based; conditions: Homo sapiens
[8] = microbe, parasite or virus in culture; type: functional; conditions: Mycobacterium tuberculosis
[9] = viability loss of HPDE-C7K cells – cell-based, fluorescence, HTS, primary screen (AID 431); type: functional; conditions: Homo sapiens
[10] = Luminescence Cell-Based Dose Response to Identify Activators of 5'UTR Stem-Loop Driven Prion Protein mRNA Translation in H4-C Neuroglioblastoma Cells. [Related pubchem assays: 1829 (Project Summary), 1814 (Primary HTS)]; type: functional
[11] = Luminescence Cell-Based Dose Response HTS to Identify Activators of Luciferase Translation or Activity in H4 […] Cells. [Related pubchem assays: 1829 (Project Summary), 1814 (Primary HTS)]; type: functional
H4 = assay: Luminescence Cell-Based Dose Response HTS to Identify Activators of 5'UTR Stem-Loop Driven Prion Protein mRNA Translation in H4 Neuroglioblastoma Cells. [Related pubchem assays: 1829 (Project Summary), 1814 (Primary HTS)]; type: functional; conditions: Homo sapiens
[12] = Luminescence Cell-Based Dose Response to Identify Activators of Luciferase Translation or Activity in H4-C Neuroglioblastoma Cells. [Related pubchem assays: 1829 (Project Summary), 1814 (Primary HTS)]; type: functional
[13] = Luminescence Cell-Based Dose Confirmation to Identify Activators of 5'UTR Stem-Loop Driven Alpha-Synuclein mRNA Translation in H4 Neuroglioblastoma Cells. [Related pubchem assays: 1829 (Project Summary), 1814 (Primary HTS)]; type: functional
[14] = molecular target: T3, Corticotropin-releasing factor receptor 2/Corticotropin-releasing factor-binding protein (Homo sapiens, UniProt P24387+Q13324); assay: activators of CRF receptor 2 with binding protein – uHTS hits, confirmation (AID 602473); type: functional; conditions: read-out: EC50_Mean
T3 sequence (Q13324 whole entry): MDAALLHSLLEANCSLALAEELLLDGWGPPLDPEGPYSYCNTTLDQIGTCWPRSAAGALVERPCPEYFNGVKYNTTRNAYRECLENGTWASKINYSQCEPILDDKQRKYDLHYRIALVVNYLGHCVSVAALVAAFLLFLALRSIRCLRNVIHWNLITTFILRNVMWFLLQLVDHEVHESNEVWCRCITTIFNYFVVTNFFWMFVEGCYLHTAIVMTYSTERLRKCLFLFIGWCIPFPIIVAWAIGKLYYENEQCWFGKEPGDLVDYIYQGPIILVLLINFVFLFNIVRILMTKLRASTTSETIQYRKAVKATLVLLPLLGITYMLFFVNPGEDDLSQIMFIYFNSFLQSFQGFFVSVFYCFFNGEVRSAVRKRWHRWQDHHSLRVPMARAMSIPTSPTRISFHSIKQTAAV
T3 sequence (P24387 whole entry): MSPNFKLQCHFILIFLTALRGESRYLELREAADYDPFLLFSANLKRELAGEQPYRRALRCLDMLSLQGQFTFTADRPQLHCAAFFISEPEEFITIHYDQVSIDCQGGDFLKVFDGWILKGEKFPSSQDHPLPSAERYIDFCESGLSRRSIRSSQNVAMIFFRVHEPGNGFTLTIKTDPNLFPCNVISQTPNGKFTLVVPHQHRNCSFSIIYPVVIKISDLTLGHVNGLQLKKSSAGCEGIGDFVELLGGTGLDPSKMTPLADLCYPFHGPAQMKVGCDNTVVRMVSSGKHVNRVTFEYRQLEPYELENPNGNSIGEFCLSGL

[15] = viability inhibitors of stage V gametocytes – luminescence, dose response (AID 1117278); type: functional, cell-based;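 further: gametocytes exposed to compound for 24 hours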
[16] = viability loss in human Jurkat cells – cell-based, luminescence, cytotoxicity control for P. falciparum gametocyte viability project, dose response (AID 1117277); type: functional;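 further: potency reflects loss of cellular ATP meaning fewer viable cells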

Bifunctional protein GlmU, sequence (P9WMN3 whole entry): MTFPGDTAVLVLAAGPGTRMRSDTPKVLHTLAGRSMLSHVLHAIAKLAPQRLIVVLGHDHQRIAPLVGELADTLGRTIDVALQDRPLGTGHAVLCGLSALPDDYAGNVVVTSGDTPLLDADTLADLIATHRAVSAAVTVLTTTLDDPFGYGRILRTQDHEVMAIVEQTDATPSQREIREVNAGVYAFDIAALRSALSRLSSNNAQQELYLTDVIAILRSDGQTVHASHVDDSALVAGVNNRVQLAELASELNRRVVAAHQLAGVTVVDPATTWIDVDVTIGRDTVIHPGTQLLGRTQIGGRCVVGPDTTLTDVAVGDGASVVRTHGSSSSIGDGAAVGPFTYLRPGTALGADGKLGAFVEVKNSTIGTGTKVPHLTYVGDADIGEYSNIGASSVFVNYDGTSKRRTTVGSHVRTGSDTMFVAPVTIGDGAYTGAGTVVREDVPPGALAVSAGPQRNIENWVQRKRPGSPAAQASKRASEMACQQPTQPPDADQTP
Protein Tat, sequence (P04608 whole entry): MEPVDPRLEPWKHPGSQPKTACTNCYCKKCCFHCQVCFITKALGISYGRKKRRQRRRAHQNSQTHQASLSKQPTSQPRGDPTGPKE

## COc1ncccc1-c1nnn(-c2ccc(C)cc2)n1
Bcl-2-related protein A1 [1]
  IC50: > 100 µM (not active)
Bcl-2-related protein A1 [2]
  IC50: > 100 µM (not active)

## CCc1sc(C(=O)NC2CCN(C)CC2)cc1Br
[3]
  EC50: < 0.1 µM (active)
[4]
  EC50: > 60 µM (not active)
cells
  EC50: 0.026 µM (active)

## CCCSc1nnc(NC(=O)c2sc3nc(-c4cccs4)ccc3c2N)s1
[5]
  CC50: 46 µM (active)
[6]
  IC50: 167 µM (active)

## CC(=O)c1cccc(NC(=O)CN2C(=O)NC3(CCCCCCC3)C2=O)c1
Estrogen receptor
  IC50: 48.2 µM (not active)
Protein Tat
  IC50: > 100 µM (active)

## CN1CCN(c2nc(-c3ccc(Br)cc3)nnc2-c2ccccc2)CC1
[3]
  EC50: < 0.1 µM (active)
[4]
  EC50: > 60 µM (inconclusive)
cells
  EC50: 0.008 µM (active)

## Cc1nc2cc(C(F)(F)F)ccc2n1C1CCN(Cc2nnnn2Cc2ccc3c(c2)OCO3)CC1
[7]
  EC50: 8.54 µM (active)
[8]
  CC50: > 40 µM (active)
[9]
  EC50: 8.93 µM (active)

## Cc1nnc(SCC(=O)c2cc(C)n(C3CC3)c2C)s1
[10]
  EC50: 0.594 µM (active)
[11]
  EC50: < 0.1 µM (active)
H4
  EC50: > 120 µM (not active)
[12]
  EC50: 0.266 µM (active)
[13]
  EC50: 1.88 µM (active)
[14]
  EC50: 7.62 µM (active)

## O=C(Cc1ccc(-c2ccccc2)cc1)NC(c1ccccc1)c1ccccc1
[15]
  IC50: > 109 µM (inactive)
[16]
  IC50: > 83.3 µM (inactive)

— ChEMBL document CHEMBL1201862, “PubChem BioAssay data set” (2004)
